According to patent US12209145B2, “PCSK9 antagonist compounds” (Merck Sharp & Dohme LLC, priority 2018, dated 2025):
Starred links: 1 amine or outer side, 2 acyl side, 3 side chain; linkers in the order of their positions; H or OH if unused. Positions of bridges follow the written chain, without caps; N, C: chain ends. Non-standard residues stand in square brackets, D forms with d. Residues, ends and D or L forms follow the SMILES beside them. *: point of attachment. X1 = CC1(C)C(/C=C/C=C/C=C2\N(CCCS(=O)(=O)O)c3ccc(S(=O)(=O)O)cc3C2(C)CCCCCC(=O)*)=[N+](CCCS(=O)(=O)[O-])c2ccc(S(=O)(=O)O)cc21; Trp(5-F) = N[C@@H](Cc1c[nH]c2ccc(F)cc12)C(=O)O; mXylylene = c1cc(C[*:1])cc(C[*:2])c1; αMeP = C[C@@]1(C(=O)O)CCCN1; Mpa = O=C(O)CCS

Legend:
[1] = target: T1, PCSK9 (Homo sapiens, UniProt Q8NBP7); assay: PCSK9 Alexa FRET Plus TR-FRET assay (displacement of AlexaFluor647 tagged cyclic peptide Reagent B); type: binding; settings: for Ki: 0.5 nM biotinylated PCSK9, 960 nM AF cyclic peptide Reagent B, Ki calculated from IC50 and KD of AF peptide
T1 construct: Biotinylated PCSK9 was obtained commercially; purchased
Method: (§1) The following is a description of the assays used to determine activity of compounds of the invention, and any comparator compounds reported, toward PCSK9 antagonism. Biotinylated PCSK9 was obtained commercially.
A solution containing 1 nM biotinylated PCSK9+2.5 nM Lance Streptavidin Europium (Strep-Eu) is made in 50 mM HEPES pH 7.4, 0.15 M NaCl, 5 mM CaCl2, 0.01% BSA, and 0.01% Surfactant P20. A separate solution containing 1920 nM of the AlexaFluor tagged cyclic peptide is made in the same buffer system. An Echo is used to transfer 0.075 ul of compound plus 0.675 ul of DMSO to each well of an assay plate followed by the addition of 15 ul of PCSK9+Stept-Eu and 15 ul of AF peptide. The final assay volume is 30.750 ul containing 0.5 nM PCSK9, 1.25 nM Strep-Eu, and 960 nM AF cyclic peptide. The reaction is incubated at room temperature for at least two hours prior to fluorescence measurements using an Envision Multilabel Reader. IC50 values are determined by fitting data to a sigmoidal dose-response curve using nonlinear regression. Ki is then calculated from the IC50 and the KD of AF cyclic peptide. Counts (B-counts) of the europium-labeled PCSK9 are followed to observe if compounds are adversely affecting PCSK9. A fall off of the B-counts is likely indicates a false positive of inhibition. Data from this procedure is reported as “P=‘numerical value’ (nanomolar)”
Activity data obtained by one or both of the above-described procedures is reported for selected example compounds of the invention in the following format: Example No.: A (standard TR Fret)=‘numerical value’; P (Alexa Fret plus standard TR Fret)=‘numerical value’/, note that all values reported are nanomolar.

[2] = target: T1, PCSK9; assay: PCSK9 Alexa FRET Ultra TR-FRET assay (displacement of AlexaFluor647 tagged cyclic peptide); type: binding; settings: for Ki: 0.5 nM biotinylated PCSK9, 960 nM AF cyclic peptide, Ki calculated from IC50 and KD of AF peptide
Method: as §1
A solution containing 1 nM biotinylated PCSK9+2.5 nM Lance Streptavidin Europium (Strep-Eu) is made in 50 mM HEPES pH 7.4, 0.15 M NaCl, 5 mM CaCl2, 0.01% BSA, and 0.01% Surfactant P20. A separate solution containing 1920 nM of the AlexaFluor tagged cyclic peptide is made in the same buffer system. An Echo is used to transfer 0.015 ul of compound plus 0.735 ul of DMSO to each well of an assay plate followed by the addition of 15 ul of PCSK9+Stept-Eu and 15 ul of AF peptide. The final assay volume is 30.750 ul containing 0.5 nM PCSK9, 1.25 nM Strep-Eu, and 960 nM AF cyclic peptide. The reaction is incubated at room temperature for at least two hours prior to fluorescence measurements using an Envision Multilabel Reader. IC50 values are determined by fitting data to a sigmoidal dose-response curve using nonlinear regression. Ki is then calculated from the IC50 and the KD of AF cyclic peptide. Counts (B-counts) of the europium-labeled PCSK9 are followed to observe if compounds are adversely affecting PCSK9. A fall off of the B-counts is likely indicates a false positive of inhibition. Data from this procedure is reported as “Ki Ultra=‘numerical value’ (data reported is nanomolar)”

T1 sequence (Q8NBP7 153-692): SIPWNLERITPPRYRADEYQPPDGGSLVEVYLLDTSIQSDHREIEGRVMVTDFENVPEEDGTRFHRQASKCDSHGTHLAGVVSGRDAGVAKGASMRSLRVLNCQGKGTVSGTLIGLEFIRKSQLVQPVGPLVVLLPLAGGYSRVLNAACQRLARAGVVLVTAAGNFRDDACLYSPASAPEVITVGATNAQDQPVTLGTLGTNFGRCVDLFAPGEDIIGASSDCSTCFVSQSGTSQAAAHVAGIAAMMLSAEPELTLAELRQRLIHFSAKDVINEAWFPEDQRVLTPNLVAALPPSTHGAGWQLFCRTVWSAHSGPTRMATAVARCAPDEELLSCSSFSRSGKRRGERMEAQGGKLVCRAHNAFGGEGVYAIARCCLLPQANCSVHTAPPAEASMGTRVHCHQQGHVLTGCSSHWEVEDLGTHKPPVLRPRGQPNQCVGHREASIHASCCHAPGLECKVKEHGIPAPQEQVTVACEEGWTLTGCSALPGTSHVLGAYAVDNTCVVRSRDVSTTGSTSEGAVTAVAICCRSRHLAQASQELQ

COc1ccc(C[C@@H]2NC(=O)[C@H]([C@@H](C)O)NC(=O)[C@@H]3[C@@H]4CCN3C(=O)[C@@H]3Cc5cn(c6ccc(F)cc56)CCCCN(Cc5ccc(cc5)CCNC(=O)[C@]5(C)CCCN5C2=O)C(=O)CCC(=O)N[C@@H](C)C(=O)N[C@H](CNC(=O)CCC(=O)NC2OC(CO)C(O)C(O)C2O)C(=O)N[C@@H](Cc2cccc(c2)CNC(=O)CO4)C(=O)N3)cc1 (some centres unmarked) [Ex-27]
Ki ([1]; read-out: Ki Plus): 5.58 pM | Ki ([2]; read-out: Ki Ultra): 3.01 pM

COc1ccc(C[C@@H]2NC(=O)[C@H]([C@@H](C)O)NC(=O)[C@@H]3[C@@H]4CCN3C(=O)[C@@H]3Cc5cn(c6ccc(F)cc56)C/C=C/CN(Cc5ccc(cc5)CCNC(=O)[C@]5(C)CCCN5C2=O)C(=O)CCC(=O)N[C@@H](C)C(=O)N[C@H](CNC(=O)CCOCCOCC[N+](C)(C)C)C(=O)N[C@@H](Cc2cccc(c2)CNC(=O)CO4)C(=O)N3)cc1 [Ex-29]
Ki ([1]; read-out: Ki Plus): 9.81 pM | Ki ([2]; read-out: Ki Ultra): 6.14 pM

COc1ccc(C[C@@H]2NC(=O)[C@H]([C@@H](C)O)NC(=O)[C@@H]3[C@@H]4CCN3C(=O)[C@@H]3Cc5cn(c6ccccc56)CCCCCCN(Cc5ccc(cc5)CCNC(=O)[C@]5(C)CCCN5C2=O)C(=O)CCC(=O)N[C@@H](C)C(=O)N[C@H](CNC(=O)CCCCC[N+](C)(C)C)C(=O)N[C@@H](Cc2cccc(c2)CNC(=O)CO4)C(=O)N3)cc1 [Ex-35]
Ki ([1]; Ki Plus): 46.5 pM | Ki ([2]; Ki Ultra): 84.3 pM

COc1ccc(C[C@@H]2NC(=O)[C@H](C)NC(=O)[C@@H]3[C@@H]4CCN3C(=O)[C@@H]3Cc5cn(c6ccc(F)cc56)CCCCCCN(Cc5ccc(cc5)CCNC(=O)[C@]5(C)CCCN5C2=O)C(=O)CCC(=O)N[C@@H](C)C(=O)N[C@H](CNC(=O)CCCCC[N+](C)(C)C)C(=O)N[C@@H](Cc2cccc(c2)CNC(=O)CO4)C(=O)N3)cc1 [Ex-36]
Ki ([1]; Ki Plus): 7.62 pM | Ki ([2]; Ki Ultra): 5.07 pM

COc1ccc(C[C@@H]2NC(=O)[C@H]([C@@H](C)O)NC(=O)[C@@H]3[C@@H]4CCN3C(=O)[C@@H]3Cc5cn(c6ccc(F)cc56)CCCCC[C@@H](NC(=O)CCC(=O)N[C@@H](C)C(=O)N[C@H](CNC(=O)CCCCC[N+](C)(C)C)C(=O)N[C@@H](Cc5cccc(c5)CNC(=O)CO4)C(=O)N3)c3ccc(cc3)CCNC(=O)[C@]3(C)CCCN3C2=O)cc1 [Ex-38]
Ki ([1]; Ki Plus): 9.04 pM | Ki ([2]; Ki Ultra): 14.2 pM

COc1ccc(C[C@@H]2NC(=O)[C@H]([C@@H](C)O)NC(=O)[C@@H]3[C@@H]4CCN3C(=O)[C@@H]3Cc5cn(c6ccc(F)cc56)CCCCCOCc5cc(ccc5CNC(=O)CCC(=O)N[C@@H](C)C(=O)N[C@H](CNC(=O)CCCCC[N+](C)(C)C)C(=O)N[C@@H](Cc5cccc(c5)CNC(=O)CO4)C(=O)N3)CCNC(=O)[C@]3(C)CCCN3C2=O)cc1 [Ex-39]
Ki ([1]; Ki Plus): 7.16 pM | Ki ([2]; Ki Ultra): 4.14 pM

COc1ccc(C[C@@H]2NC(=O)[C@H]([C@@H](C)O)NC(=O)[C@@H]3[C@@H]4CCN3C(=O)[C@@H]3Cc5cn(c6ccc(F)cc56)CCCCOc5cc(cc(c5)CNC(=O)CCC(=O)N[C@@H](C)C(=O)N[C@H](CNC(=O)CCCCC[N+](C)(C)C)C(=O)N[C@@H](Cc5cccc(c5)CNC(=O)CO4)C(=O)N3)CCNC(=O)[C@]3(C)CCCN3C2=O)cc1 [Ex-40]
Ki ([1]; Ki Plus): 308 pM | Ki ([2]; Ki Ultra): 860 pM

COc1ccc(C[C@@H]2NC(=O)[C@H]([C@@H](C)O)NC(=O)[C@@H]3[C@@H]4CCN3C(=O)[C@@H]3Cc5cn(c6ccc(F)cc56)CCCCCN(CCOc5ccc(cc5)CCNC(=O)[C@]5(C)CCCN5C2=O)C(=O)CCC(=O)N[C@@H](C)C(=O)N[C@H](CNC(=O)CCCCC[N+](C)(C)C)C(=O)N[C@@H](Cc2cccc(c2)CNC(=O)CO4)C(=O)N3)cc1 [Ex-41]
Ki ([1]; Ki Plus): 6.97 pM | Ki ([2]; Ki Ultra): 6.28 pM

COc1ccc(C[C@@H]2NC(=O)[C@H]([C@@H](C)O)NC(=O)[C@@H]3[C@@H]4CCN3C(=O)[C@@H]3Cc5cn(c6ccc(F)cc56)CCCCCCN(Cc5cccc(c5)CCNC(=O)[C@]5(C)CCCN5C2=O)C(=O)CCC(=O)N[C@@H](C)C(=O)N[C@H](CNC(=O)CCCCC[N+](C)(C)C)C(=O)N[C@@H](Cc2cccc(c2)CNC(=O)CO4)C(=O)N3)cc1 [Ex-44]
Ki ([1]; Ki Plus): 14.5 pM | Ki ([2]; Ki Ultra): 21.9 pM

COc1ccc(C[C@@H]2NC(=O)[C@H]([C@@H](C)O)NC(=O)[C@@H]3[C@@H]4CCN3C(=O)[C@@H]3Cc5cn(c6ccc(F)cc56)C/C=C/CC[C@@H](NC(=O)CCC(=O)N[C@@H](C)C(=O)N[C@H](CNC(=O)CCCCC[N+](C)(C)C)C(=O)N[C@@H](Cc5cccc(c5)CNC(=O)CO4)C(=O)N3)c3ccc(cc3)CCNC(=O)[C@]3(C)CCCN3C2=O)cc1 [Ex-47]
Ki ([1]; Ki Plus): 14.7 pM | Ki ([2]; Ki Ultra): 11.9 pM

COc1ccc(C[C@@H]2NC(=O)[C@H]([C@@H](C)O)NC(=O)[C@@H]3C4CCN3C(=O)[C@@H]3Cc5cn(c6ccc(F)cc56)CCCCC[C@@H](NC(=O)CCC(=O)N[C@@H](C)C(=O)N[C@H](CNC(=O)CCOCCOCC[N+](C)(C)C)C(=O)N[C@@H](Cc5cccc(c5)CNC(=O)CO4)C(=O)N3)c3ccc(cc3)CCNC(=O)[C@]3(C)CCCN3C2=O)cc1 [Ex-48]
Ki ([1]; Ki Plus): 11.7 pM | Ki ([2]; Ki Ultra): 15.4 pM

COc1ccc(C[C@@H]2NC(=O)[C@H]([C@@H](C)O)NC(=O)[C@@H]3[C@@H]4CCN3C(=O)[C@@H]3Cc5cn(c6ccc(F)cc56)CCCCOCc5cc(ccc5CNC(=O)CCC(=O)N[C@@H](C)C(=O)N[C@H](CNC(=O)CCCCC[N+](C)(C)C)C(=O)N[C@@H](Cc5cccc(c5)CNC(=O)CO4)C(=O)N3)CCNC(=O)[C@]3(C)CCCN3C2=O)cc1 [Ex-49]
Ki ([1]; Ki Plus): 7.16 pM | Ki ([2]; Ki Ultra): 4.14 pM

COc1ccc(C[C@@H]2NC(=O)[C@H]([C@@H](C)O)NC(=O)[C@@H]3[C@@H]4CCN3C(=O)[C@@H]3Cc5cn(c6ccc(F)cc56)CCCCCCN(Cc5ccc(cc5)CCNC(=O)[C@]5(C)CCCN5C2=O)C(=O)CCC(=O)N[C@@H](C)C(=O)N[C@H](CNC(=O)CCOCCCCC[N+](C)(C)C)C(=O)N[C@@H](Cc2cccc(c2)CNC(=O)CO4)C(=O)N3)cc1 [Ex-59]
Ki ([1]; Ki Plus): 7.88 pM | Ki ([2]; Ki Ultra): 4.96 pM

COc1ccc(C[C@@H]2NC(=O)[C@H]([C@@H](C)O)NC(=O)[C@@H]3[C@@H]4CCN3C(=O)[C@@H]3Cc5cn(c6ccc(F)cc56)CCCCCCN(Cc5ccc(cc5)CCNC(=O)[C@]5(C)CCCN5C2=O)C(=O)CCC(=O)N[C@@H](C)C(=O)N[C@H](CNC(=O)CNC(=O)CCCCC[N+](C)(C)C)C(=O)N[C@@H](Cc2cccc(c2)CNC(=O)CO4)C(=O)N3)cc1 [Ex-60]
Ki ([1]; Ki Plus): 6.51 pM | Ki ([2]; Ki Ultra): 5.31 pM

COc1ccc(C[C@@H]2NC(=O)[C@H]([C@@H](C)O)NC(=O)[C@@H]3[C@@H]4CCN3C(=O)[C@@H]3Cc5cn(c6ccc(F)cc56)CCCCCCN(Cc5ccc(cc5)CCNC(=O)[C@]5(C)CCCN5C2=O)C(=O)CCC(=O)N[C@@H](C)C(=O)N[C@H](CNC(=O)CCCCCCCC[N+](C)(C)C)C(=O)N[C@@H](Cc2cccc(c2)CNC(=O)CO4)C(=O)N3)cc1 [Ex-61]
Ki ([1]; Ki Plus): 7.47 pM | Ki ([2]; Ki Ultra): 6.54 pM

COc1ccc(C[C@@H]2NC(=O)[C@H](Cc3c[nH]cn3)NC(=O)[C@H](CC(=O)O)NC(=O)[C@H](Cc3c[nH]c4ccc(F)cc34)NC(=O)[C@H](Cc3c[nH]c4ccc(F)cc34)NC(=O)[C@@H](C)NC(=O)[C@H](CCCCNC(=O)CCCCCC3(C)/C(=C/C=C/C=C/C4=[N+](CCCS(=O)(=O)[O-])c5ccc(S(=O)(=O)O)cc5C4(C)C)N(CCCS(=O)(=O)O)c4ccc(S(=O)(=O)O)cc43)NC(=O)CCSCc3cccc(c3)CSC[C@@H](C(N)=O)NC(=O)[C@]3(C)CCCN3C2=O)cc1 (some centres unmarked) [Reagent B, reference compound] ([Mpa]K(X1)[dA][Trp(5-F)][Trp(5-F)]DHY(Me)[αMeP]C-NH2; linker 1-10 via mXylylene)
Kd ([1]; probe of the Alexa FRET Plus assay): 35000 pM | Kd ([2]; probe of the Alexa FRET Ultra assay): 990 pM
